Measurements taken from patent US20260217767A1, “NOVEL A4B7 THIOETHER PEPTIDE DIMER ANTAGONISTS” (Protagonist Therapeutics, Inc., priority 2014, published 2026).
Values joined by “and” are separate entries in the source; they are usually repeats but may differ in a detail not shown here. Equal values may be shown once. Read-outs that look alike come from different tables or passages of the source. *1 amine or outer side, *2 acyl side, *3 side chain or, on linkers, in order; H or OH if unused. Where a SMILES comes first, the peptide text is derived from it. Bridges are numbered along the chain shown (N, C = ends). Roman numbers before positions name the chains, in order. [ ]: non-standard residue; d: D form. Diglycolyl = O=C(COCC(=O)[*:2])[*:1]; NMeR = CN[C@@H](CCCNC(=N)N)C(=O)O; Tic = O=C(O)[C@@H]1Cc2ccccc2CN1; X1 = O=C(c1ccccc1C[*:2])[*:1]; Pen = CC(C)(S)[C@H](N)C(=O)O

Tests used:
[1] = Simulated Intestinal Fluid (SIF) Stability Assay; assay type: in vitro ADME; conditions: 37° C.; for half-life / half-life at 22 μM: pig; for half-life / SIF (Porcine) (half-life, min): porcine pancreatin; for half-life at 22 μM: simulated intestinal fluid (SIF) with 1% porcine pancreatin, pH 6.5, porcine pancreatin
Method in brief: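 Peptide at 22 μM final was incubated at 37° C in blank FaSSIF pH 6.5 with 1% porcine pancreatin. Timed samples were quenched in acetonitrile/methanol/formic acid with internal standard and analysed by LC-MS/MS. Half-lives came from first-order exponential fits of percent remaining.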

rh integrin α4β7 = target: T1, rh integrin α4β7 (Homo sapiens, UniProt P13612+P26010); assay: α4β7-MAdCAM Competition ELISA; assay type: binding; conditions: read-out: ELISA A4B7
T1 construct: purchased R&D Systems 5397-A30
T1 sequence (P13612 34-977 limits assumed): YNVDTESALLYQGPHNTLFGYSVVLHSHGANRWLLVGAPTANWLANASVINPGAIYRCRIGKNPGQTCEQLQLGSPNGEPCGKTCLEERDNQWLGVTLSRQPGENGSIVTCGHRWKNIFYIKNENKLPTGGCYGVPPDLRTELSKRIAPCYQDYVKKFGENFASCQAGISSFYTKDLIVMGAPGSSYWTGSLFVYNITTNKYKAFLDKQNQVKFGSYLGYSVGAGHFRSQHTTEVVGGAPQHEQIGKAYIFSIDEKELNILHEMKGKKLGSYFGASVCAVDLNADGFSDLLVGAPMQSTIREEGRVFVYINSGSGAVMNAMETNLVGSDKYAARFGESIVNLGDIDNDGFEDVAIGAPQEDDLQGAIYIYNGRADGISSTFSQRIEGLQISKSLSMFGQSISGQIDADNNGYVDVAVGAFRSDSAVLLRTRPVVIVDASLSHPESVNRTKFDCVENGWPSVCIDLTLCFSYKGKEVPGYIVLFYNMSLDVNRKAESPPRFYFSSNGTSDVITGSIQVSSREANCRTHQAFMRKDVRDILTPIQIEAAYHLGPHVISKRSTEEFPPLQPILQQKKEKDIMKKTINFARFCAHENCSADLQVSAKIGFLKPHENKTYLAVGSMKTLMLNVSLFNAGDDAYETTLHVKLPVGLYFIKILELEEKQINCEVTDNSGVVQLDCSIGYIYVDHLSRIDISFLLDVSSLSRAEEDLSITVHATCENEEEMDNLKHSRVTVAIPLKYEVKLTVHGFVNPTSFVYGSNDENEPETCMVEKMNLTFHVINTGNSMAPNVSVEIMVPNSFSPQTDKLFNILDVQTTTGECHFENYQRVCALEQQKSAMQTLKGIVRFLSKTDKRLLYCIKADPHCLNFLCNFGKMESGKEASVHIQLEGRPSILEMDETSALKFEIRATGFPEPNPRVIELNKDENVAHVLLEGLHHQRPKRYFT
T1 sequence (P26010 20-723 limits assumed): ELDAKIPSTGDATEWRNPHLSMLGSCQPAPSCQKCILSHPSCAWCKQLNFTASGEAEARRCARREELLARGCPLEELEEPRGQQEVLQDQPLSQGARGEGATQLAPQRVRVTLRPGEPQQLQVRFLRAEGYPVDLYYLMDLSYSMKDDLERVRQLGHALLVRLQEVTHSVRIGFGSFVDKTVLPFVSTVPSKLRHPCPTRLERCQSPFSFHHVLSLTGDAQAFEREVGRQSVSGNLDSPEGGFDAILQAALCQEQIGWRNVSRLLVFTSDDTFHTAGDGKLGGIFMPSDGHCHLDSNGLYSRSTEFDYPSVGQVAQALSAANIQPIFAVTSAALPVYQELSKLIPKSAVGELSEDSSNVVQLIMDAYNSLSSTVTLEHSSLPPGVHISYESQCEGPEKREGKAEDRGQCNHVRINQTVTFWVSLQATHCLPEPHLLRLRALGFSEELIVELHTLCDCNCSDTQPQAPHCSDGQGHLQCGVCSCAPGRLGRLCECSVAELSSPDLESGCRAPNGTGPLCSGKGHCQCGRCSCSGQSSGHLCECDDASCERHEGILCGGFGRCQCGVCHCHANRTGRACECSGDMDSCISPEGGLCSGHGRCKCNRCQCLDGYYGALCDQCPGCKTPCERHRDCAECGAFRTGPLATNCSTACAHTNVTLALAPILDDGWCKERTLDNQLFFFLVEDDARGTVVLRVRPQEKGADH
Method in brief: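 Recombinant human α4β7 captured on nickel-coated plates, then incubated 1 h at room temperature with serially diluted peptides (final top 10 μM) and 10 nM final MAdCAM-1 in Tris pH 7.6 buffer with 1 mM MnCl2 or MgCl2. Bound MAdCAM-1 detected with anti-human IgG1-HRP and TMB, absorbance at 450 nm.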

[2] = thioether peptide dimers, Table 7
[3] = thioether monomer peptides, Table 6

Structure (SMILES)	IC50 (rh integrin α4β7; [2])	half-life at 22 μM ([1]; dimers, Table 7)	other results
CC(C)C[C@@H]1NC(=O)[C@H]([C@@H](C)O)NC(=O)[C@H](CC(=O)O)NC(=O)[C@H](CO)NC(=O)[C@H](CCCNC(=N)N)N(C)C(=O)c2ccccc2CSC(C)(C)[C@@H](C(=O)N[C@@H](Cc2c[nH]c3ccccc23)C(=O)N[C@H](CCC(=O)O)C(=O)N[C@H](CCCCNC(=O)COCC(=O)NCCCC[C@@H](NC(=O)[C@@H](CCC(=O)O)NC(=O)[C@H](Cc2c[nH]c3ccccc23)NC(=O)[C@H]2NC(=O)[C@H](CC(C)C)NC(=O)[C@H]([C@@H](C)O)NC(=O)[C@H](CC(=O)O)NC(=O)[C@H](CO)NC(=O)[C@H](CCCNC(=N)N)N(C)C(=O)c3ccccc3CSC2(C)C)C(=O)O)C(=O)O)NC1=O [compound 209] (I: [NMeR]SDTL[Pen]W[dE][dK]-OH / II: [NMeR]SDTL[Pen]W[dE][dK]-OH; linker I:9-II:9 via Diglycolyl; linker I:N-I:6, II:N-II:6 via X1)	< 25 nM	–	half-life ([1]; dimers, Table 7): > 3 h
CC(C)C[C@@H]1NC(=O)[C@H]([C@@H](C)O)NC(=O)[C@H](CC(=O)O)NC(=O)[C@H](CO)NC(=O)[C@H](CCCNC(=N)N)N(C)C(=O)c2ccccc2CSC(C)(C)[C@@H](C(=O)N[C@@H](Cc2c[nH]c3ccccc23)C(=O)N[C@H](CCC(=O)O)C(=O)N[C@@H](CCN)C(N)=O)NC1=O [compound 95] (HELM PEPTIDE1{[meR].S.D.T.L.[Pen].W.[dE].[Dab].[am]}|CHEM1{[O=C(c1ccccc1C[*:2])[*:1]]}$PEPTIDE1,CHEM1,1:R1-1:R1|PEPTIDE1,CHEM1,6:R3-1:R2$$$V2.0)	–	–	half-life ([1]; monomers, Table 6): > 3 h; IC50 (rh integrin α4β7; [3]): < 25 nM
CC(C)C[C@@H]1NC(=O)[C@H]([C@@H](C)O)NC(=O)[C@H](CC(=O)O)NC(=O)[C@H](CO)NC(=O)[C@H](CCCNC(=N)N)N(C)C(=O)c2ccccc2CSC(C)(C)[C@@H](C(=O)N[C@@H](Cc2ccc(-c3ccccc3)cc2)C(=O)N[C@H](CCC(=O)O)C(=O)N[C@H](CCCCN)C(N)=O)NC1=O [compound 178] (HELM PEPTIDE1{[meR].S.D.T.L.[Pen].[O=C([C@H](Cc1ccc(-c2ccccc2)cc1)N[*:1])[*:2]].[dE].[dK].[am]}|CHEM1{[O=C(c1ccccc1C[*:2])[*:1]]}$PEPTIDE1,CHEM1,1:R1-1:R1|PEPTIDE1,CHEM1,6:R3-1:R2$$$V2.0)	< 25 nM	> 3 h	SIF (Porcine) (half-life, min) ([1]; dimers, Table 7): >180 (266), min and >180 min
CC(C)C[C@@H]1NC(=O)[C@H]([C@@H](C)O)NC(=O)[C@H](CC(=O)O)NC(=O)[C@H](CO)NC(=O)[C@H](CCCNC(=N)N)N(C)C(=O)c2ccccc2CSC[C@@H](C(=O)N2Cc3ccccc3C[C@H]2C(=O)N[C@H](CCC(=O)O)C(=O)N[C@H](CCCCNC(=O)COCC(=O)NCCCC[C@@H](NC(=O)[C@@H](CCC(=O)O)NC(=O)[C@@H]2Cc3ccccc3CN2C(=O)[C@@H]2CSCc3ccccc3C(=O)N(C)[C@@H](CCCNC(=N)N)C(=O)N[C@@H](CO)C(=O)N[C@@H](CC(=O)O)C(=O)N[C@@H]([C@@H](C)O)C(=O)N[C@@H](CC(C)C)C(=O)N2)C(=O)O)C(=O)O)NC1=O [compound 207] (I: [NMeR]SDTLC[Tic][dE][dK]-OH / II: [NMeR]SDTLC[Tic][dE][dK]-OH; linker I:9-II:9 via Diglycolyl; linker I:N-I:6, II:N-II:6 via X1)	< 25 nM	–	half-life ([1]; dimers, Table 7): > 3 h
CC(C)C[C@@H]1NC(=O)[C@H]([C@@H](C)O)NC(=O)[C@H](CC(=O)O)NC(=O)[C@H](CO)NC(=O)[C@H](CCCNC(=N)N)N(C)C(=O)c2ccccc2CSC(C)(C)[C@@H](C(=O)N[C@@H](Cc2c[nH]c3ccccc23)C(=O)N[C@@H](CCC(=O)O)C(N)=O)NC1=O [compound 96] (HELM PEPTIDE1{[meR].S.D.T.L.[Pen].W.E.[am]}|CHEM1{[O=C(c1ccccc1C[*:2])[*:1]]}$PEPTIDE1,CHEM1,1:R1-1:R1|PEPTIDE1,CHEM1,6:R3-1:R2$$$V2.0)	–	–	half-life at 22 μM ([1]; monomers, Table 6): 0.433 h; IC50 (rh integrin α4β7; [3]): < 25 nM
CC(C)C[C@@H]1NC(=O)[C@H]([C@@H](C)O)NC(=O)[C@H](CC(=O)O)NC(=O)[C@H](CO)NC(=O)[C@H](CCCNC(=N)N)N(C)C(=O)C(C)SC[C@@H](C(=O)N[C@@H](Cc2c[nH]c3ccccc23)C(=O)N[C@H](CCCCN)C(N)=O)NC1=O (single isomer, unassigned) [compound 144]	< 25 nM	< 0.333 h	–
CC(C)C[C@@H]1NC(=O)[C@H]([C@@H](C)O)NC(=O)[C@H](CC(=O)O)NC(=O)[C@H](CO)NC(=O)[C@H](CCCNC(=N)N)N(C)C(=O)c2ccccc2CSC[C@@H](C(=O)N2Cc3ccccc3C[C@H]2C(=O)N[C@H](CCC(=O)O)C(=O)N[C@H](CCCCNC(=O)COCC(=O)NCCCC[C@@H](NC(=O)[C@@H](CCC(=O)O)NC(=O)[C@@H]2Cc3ccccc3CN2C(=O)[C@@H]2CSCc3ccccc3C(=O)N(C)[C@@H](CCCNC(=N)N)C(=O)N[C@@H](CO)C(=O)N[C@@H](CC(=O)O)C(=O)N[C@@H]([C@@H](C)O)C(=O)N[C@@H](CC(C)C)C(=O)N2)C(N)=O)C(N)=O)NC1=O [compound 184] (I: [NMeR]SDTLC[Tic][dE][dK]-NH2 / II: [NMeR]SDTLC[Tic][dE][dK]-NH2; linker I:9-II:9 via Diglycolyl; linker I:N-I:6, II:N-II:6 via X1)	< 25 nM	> 3 h	SIF (Porcine) (half-life, min) ([1]; dimers, Table 7): >180 min
